Reference: patent US20250325531A1, “TREATMENT OF SYSTOLIC DYSFUNCTION” (MyoKardia, Inc., priority 2024, published 2025)

System: healthy subjects
Assay: Transthoracic echocardiography (TTE) pharmacodynamics after single ascending doses in healthy volunteers
Assay type: in vivo, human
Details: for SET, mean (SD) increase from Baseline: 1.5 to 2 hours postdose
Description: To assess pharmacodynamic effects, serial echocardiograms were performed. The sonographers used in the study completed Echo protocol training and submitted an example of a study for evaluation to the core laboratory for evaluation. The core TTE lab certified that the sonographer was able to perform the TTEs at a level satisfactory for obtaining the required protocol data.
These criteria were chosen to prevent subjects from having prolongation of SET that might lead to myocardial ischemia. Dose escalation stopping criteria also included observation of a Baseline-corrected, group mean relative increase of >20% in any 2 sequential TTE assessments in at least 2 measures of LV contractility: LVOT-VTI, LVFS, LVEF, or LVSV in subjects receiving Compound I. Placebo-controlled evaluation may have been considered. For this comparison, subjects who received placebo may have been pooled across cohorts.
PK and PD data were collected as described herein. […] Changes from Baseline at each postbaseline timepoint were assessed.
SET as determined by TTE was assessed using summary statistics. Observations and change from Baseline were summarized by treatment at each time point and the maximum change from Baseline determined for each subject. In addition, categorical analyses were performed on the number of subjects with a change from Baseline >50 msec and the number of subjects with a change from Baseline >75 msec in 1 or any 2 sequential TTE assessments. The relationship to Compound I plasma concentration to SET was explored. An analysis of SET placebo-adjusted change from Baseline was also performed.
As the Cmax occurred at between 4 and 6 hours in most of the subjects, the TTE obtained at 6 hours postdose was considered the best timepoint to explore the relationship between concentration and pharmacological effect. TTEs obtained at 1.5 and 3 hours after dosing were before the Cmax and at 9 hours were after the peak Cmax. Based on the preclinical data, it was considered unlikely that there would be a prolonged lag between the Cmax and peak pharmacological effect. As the exposure after the administration of the 350 mg and 525 mg doses were very similar, it was decided to not only present the results from these groups separately, but also to combine the data from these groups. By combining the data from the 2 groups, the number of subjects dosed was increased from 6 to 12, thus increasing the power to observe a statistically significant change from Baseline in the TTE parameters of interest.

[1] = 6 hours postdose, plasma concentration bin 0-1000 ng/mL (n = 29)
[2] = 6 hours postdose, plasma concentration bin 1001-2000 ng/mL (n = 9)
[3] = 6 hours postdose, plasma concentration bin >2000 ng/mL (n = 10)
[4] = plasma concentrations >2000 ng/ml, 6 hours postdose

Cn1cc(S(=O)(=O)[C@@](C)(F)C2CCN(C(=O)Nc3ccon3)CC2)c(C(F)F)n1 [Compound I, (R)-4-(1-((3-(difluoromethyl)-1-methyl-1H-pyrazol-4-yl)sulfonyl)-1-fluoroethyl)-N-(isoxazol-3-yl) piperidine-1-carboxamide]
SET, mean (SD) increase from Baseline (350 mg and 525 mg combined): 18.0 (19.5) msec | SET, mean (SD) increase from Baseline (350 mg): 19.2 (20.5) msec | DBP, placebo-corrected LS mean difference of change from Baseline [1]: 2.277 mm Hg | E/A ratio, placebo-corrected LS mean difference of change from Baseline [1]: 0.150 | HR, placebo-corrected LS mean difference of change from Baseline [1]: −1.070 bpm | LVEDD, placebo-corrected LS mean difference of change from Baseline [1]: −0.014 cm | LVESD, placebo-corrected LS mean difference of change from Baseline [1]: 0.025 cm | LVFS, placebo-corrected LS mean difference of change from Baseline [1]: −0.560% | MPI, placebo-corrected LS mean difference of change from Baseline [1]: −0.007 | SBP, placebo-corrected LS mean difference of change from Baseline [1]: −0.623 mm Hg | DBP, placebo-corrected LS mean difference of change from Baseline [2]: 2.937 mm Hg | HR, placebo-corrected LS mean difference of change from Baseline [2]: 0.336 bpm | LVEDD, placebo-corrected LS mean difference of change from Baseline [2]: −0.041 cm | LVEDV, placebo-corrected LS mean difference of change from Baseline [2]: -6.100 mL | MPI, placebo-corrected LS mean difference of change from Baseline [2]: −0.021 | SBP, placebo-corrected LS mean difference of change from Baseline [2]: 1.132 mm Hg | DBP, placebo-corrected LS mean difference of change from Baseline [3]: 1.540 mm Hg | E/A ratio, placebo-corrected LS mean difference of change from Baseline [3]: −0.047 | E/e′(lateral), placebo-corrected LS mean difference of change from Baseline [3]: −0.063 | HR, placebo-corrected LS mean difference of change from Baseline [3]: 2.871 bpm | MPI, placebo-corrected LS mean difference of change from Baseline [3]: 0.033 | SBP, placebo-corrected LS mean difference of change from Baseline [3]: −1.572 mm Hg | plasma concentrations at which PD effects were discernable (echocardiographic measures): ≥ 1000 ng/mL | IVRT (mitral inflow doppler), placebo-corrected LS mean difference [4]: 12.0 ms | stroke volume, placebo-corrected LS mean difference±SE [4]: 8.20 ± 3.99 mL
